Reference: patent publication US20110287080A1, “COATING II” (SMITH & NEPHEW PLC, priority 2008, published 2011)

Experiment: Elution of rapamycin from polymer-coated stents into PBS at 37° C., monitored by UV/vis
Format: physicochemical
Details: stent coating with 25% rapamycin, cumulative absorbance at 279 nm
Experimental: Solutions were prepared by dissolving the polymers listed in Table 1 in CHCl3 with 25% (by weight of the solid polymer) rapamycin. After cooling for 5 minutes, the stents were attached to a mandrel and coated on the Sonotek MediCoat Benchtop Coater with a 0.5% w/w solution in CHCl3 of polymer/drug (75/25). The parameters used were: 0.09 ml/min flow rate, 1.0 W ultrasonic power, 16 passes, 40 rpm rotation, 0.13 cm/s horizontal travel and 25 mm from stent to spray head. After coating, the stents were dried under vacuum for 16 hours at 40° C. The stents were released into phosphate buffered saline solution (PBS) at 37° C. and the elution monitored by UV/vis spectroscopy. Fresh buffer solution was added after each reading and the cumulative absorbance at 279 nm was recorded.

Compound: CCCCCCCCCCCC(=O)O [lauric acid]
- rate of release (elution) of rapamycin: minimal affect on the rate of release of rapamycin
